Results reported in PubChem BioAssay AID330 (DTP/NCI, 2004).
Values joined by “and” are separate entries in the source; they are usually repeats but may differ in a detail not shown here. Identical values can stand only once. Toxic doses and inconclusive results are not listed.

System: P388 leukemia ip, CD2F1 mice, survival T/C
Assay: NCI In Vivo Anticancer Drug Screen. Data for tumor model P388 Leukemia (intraperitoneal) in CD2F1 (CDF1) mice
Settings: endpoint: median survival time, higher = longer survival
Summary of the method: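 Mice carrying the transplanted tumor received test compound or vehicle. Survival was recorded in each group, and the value is the treated-group measurement divided by that of the vehicle-treated control group.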

[1] = dose: 50.0 mg/kg/injection, schedule: Q01DX009 (ip), vehicle: saline
[2] = dose: 100.0 mg/kg/injection, schedule: Q01DX009 (ip), vehicle: saline
[3] = dose: 200.0 mg/kg/injection, schedule: Q01DX009 (ip), vehicle: saline
[4] = dose: 50.0 mg/kg/injection, schedule: Q01DX005 (ip), vehicle: Klucel (hydroxypropylcellulose) (HPC)
[5] = dose: 100.0 mg/kg/injection, schedule: Q01DX005 (ip), vehicle: Klucel (hydroxypropylcellulose) (HPC)
[6] = dose: 200.0 mg/kg/injection, schedule: Q01DX005 (ip), vehicle: Klucel (hydroxypropylcellulose) (HPC)
[7] = dose: 50.0 mg/kg/injection, schedule: Q01DX009 (ip), vehicle: saline with Tween-80
[8] = dose: 100.0 mg/kg/injection, schedule: Q01DX009 (ip), vehicle: saline with Tween-80
[9] = dose: 200.0 mg/kg/injection, schedule: Q01DX009 (ip), vehicle: saline with Tween-80
[10] = dose: 12.5 mg/kg/injection, schedule: Q01DX001 (ip), vehicle: Klucel (hydroxypropylcellulose) (HPC)
[11] = dose: 25.0 mg/kg/injection, schedule: Q01DX001 (ip), vehicle: Klucel (hydroxypropylcellulose) (HPC)
[12] = dose: 200.0 mg/kg/injection, schedule: Q01DX005 (ip), vehicle: saline with Tween-80
[13] = dose: 60.0 mg/kg/injection, schedule: Q01DX005 (ip), vehicle: saline
[14] = dose: 120.0 mg/kg/injection, schedule: Q01DX005 (ip), vehicle: saline
[15] = dose: 100.0 mg/kg/injection, schedule: Q01DX005 (ip), vehicle: saline with Tween-80
[16] = dose: 12.5 mg/kg/injection, schedule: Q01DX009 (ip), vehicle: saline with Tween-80
[17] = dose: 25.0 mg/kg/injection, schedule: Q01DX009 (ip), vehicle: saline with Tween-80

Compound: CNC(=S)N/N=C(\c1ccccc1)c1ccccn1
- T/C [1]: 100 % of control
- T/C (dose: 50.0 mg/kg/injection, schedule: Q01DX009 (ip), vehicle: suspension in saline): 100 % of control and 105 % of control
- T/C [2]: 102 % of control
- T/C (dose: 100.0 mg/kg/injection, schedule: Q01DX009 (ip), vehicle: suspension in saline): 103 % of control and 90 % of control
- T/C [3]: 100 % of control
- T/C (dose: 200.0 mg/kg/injection, schedule: Q01DX009 (ip), vehicle: suspension in saline): 96 % of control and 98 % of control
- T/C (dose: 400.0 mg/kg/injection, schedule: Q01DX009 (ip), vehicle: saline): 122 % of control
- T/C (dose: 400.0 mg/kg/injection, schedule: Q01DX009 (ip), vehicle: suspension in saline): 102 % of control and 97 % of control

Compound: BrCC[N+]12CC[N+](CCBr)(CC1)C2
- T/C (dose: 6.25 mg/kg/injection, schedule: Q01DX009 (ip), vehicle: saline): 114 % of control
- T/C (dose: 12.5 mg/kg/injection, schedule: Q01DX009 (ip), vehicle: saline): 116 % of control
- T/C [1]: 203 % of control and 110 % of control and 121 % of control
- T/C (dose: 50.0 mg/kg/injection, schedule: Q04DX003 (ip), vehicle: water): 101 % of control
- T/C [2]: 202 % of control and 115 % of control and 118 % of control
- T/C (dose: 100.0 mg/kg/injection, schedule: Q04DX003 (ip), vehicle: water): 108 % of control
- T/C [3]: 114 % of control
- T/C (dose: 400.0 mg/kg/injection, schedule: Q04DX003 (ip), vehicle: water): 173 % of control

Compound: CN1C(=O)C(N=O)C(=O)N(C)C1=S
- T/C (dose: 6.25 mg/kg/injection, schedule: Q04DX002 (ip), vehicle: saline with Tween-80): 99 % of control
- T/C (dose: 12.5 mg/kg/injection, schedule: Q04DX002 (ip), vehicle: saline with Tween-80): 100 % of control
- T/C (dose: 25.0 mg/kg/injection, schedule: Q04DX002 (ip), vehicle: saline with Tween-80): 101 % of control

Compound: COc1cc(CC2C(Cc3ccc4c(c3)OCO4)COC2CO)cc(OC)c1OC (stereo not drawn)
- T/C (dose: 6.25 mg/kg/injection, schedule: Q04DX002 (ip), vehicle: acetone): 95 % of control
- T/C (dose: 12.5 mg/kg/injection, schedule: Q04DX002 (ip), vehicle: acetone): 102 % of control
- T/C (dose: 25.0 mg/kg/injection, schedule: Q04DX002 (ip), vehicle: acetone): 98 % of control

Compound: CC(C)CC1NC(=O)C(CC(C)C)N(CO)C1=O (stereo not drawn)
- T/C [4]: 97 % of control
- T/C [5]: 99 % of control
- T/C [6]: 95 % of control

Compound: CC1=C(C)C(=O)O[C@@H]([C@](C)(O)[C@]2(O)CC[C@@]3(O)[C@@H]4C[C@H](O)[C@]5(O)[C@@H](O)C=CC(=O)[C@]5(C)[C@H]4CC[C@]23C)C1
- T/C (dose: 4.0 mg/kg/injection, schedule: Q01DX005 (ip), vehicle: distilled water + Tween-80): 100 % of control
- T/C (dose: 8.0 mg/kg/injection, schedule: Q01DX005 (ip), vehicle: distilled water + Tween-80): 102 % of control
- T/C (dose: 16.0 mg/kg/injection, schedule: Q01DX005 (ip), vehicle: distilled water + Tween-80): 107 % of control
- T/C (dose: 32.0 mg/kg/injection, schedule: Q01DX005 (ip), vehicle: distilled water + Tween-80): 106 % of control and 112 % of control
- T/C (dose: 64.0 mg/kg/injection, schedule: Q01DX005 (ip), vehicle: distilled water + Tween-80): 99 % of control and 107 % of control
- T/C (dose: 128.0 mg/kg/injection, schedule: Q01DX005 (ip), vehicle: distilled water + Tween-80): 99 % of control

Compound: O=C(NC(=O)C(F)(F)F)Nc1ccc(F)c(Cl)c1
- T/C [7]: 96 % of control
- T/C [8]: 105 % of control
- T/C [9]: 104 % of control

Compound: C=C1C(=O)OC2CC(C)/C=C\C(=O)C(C)(O)C(O)C(O)C12 (stereo not drawn) (tested in a mixture with another compound)
- T/C [10]: 113 % of control
- T/C [11]: 105 % of control

Compound: N#C/C(=N\NC(=O)c1cccc(C(=O)N/N=C(\C#N)c2ccccc2Cl)n1)c1ccccc1Cl
- T/C (dose: 1.5 mg/kg/injection, schedule: Q01DX005 (ip), vehicle: saline with Tween-80): 92 % of control
- T/C (dose: 3.0 mg/kg/injection, schedule: Q01DX005 (ip), vehicle: saline with Tween-80): 94 % of control
- T/C (dose: 6.0 mg/kg/injection, schedule: Q01DX005 (ip), vehicle: saline with Tween-80): 94 % of control
- T/C (dose: 6.25 mg/kg/injection, schedule: Q01DX005 (ip), vehicle: saline with Tween-80): 91 % of control
- T/C [12]: 100 % of control

Compound: CC1CCN(CC#CCN2C(=O)CCC2=O)CC1
- T/C (dose: 25.0 mg/kg/injection, schedule: Q01DX005 (ip), vehicle: Klucel (hydroxypropylcellulose) (HPC)): 104 % of control
- T/C [4]: 103 % of control
- T/C [5]: 107 % of control
- T/C [6]: 107 % of control

Compound: CCOC(=O)C1C(c2ccc(OC)cc2OC)c2cc3c(cc2OC1(C)N1CCCC1)OCO3 (stereo not drawn)
- T/C (dose: 60.0 mg/kg/injection, schedule: Q01DX005 (ip), vehicle: Klucel (hydroxypropylcellulose) (HPC)): 90 % of control
- T/C (dose: 120.0 mg/kg/injection, schedule: Q01DX005 (ip), vehicle: Klucel (hydroxypropylcellulose) (HPC)): 97 % of control
- T/C (dose: 240.0 mg/kg/injection, schedule: Q01DX005 (ip), vehicle: Klucel (hydroxypropylcellulose) (HPC)): 94 % of control

Compound: Cc1cccc(Cl)c1NC(=O)CN(C)CCN1CCCC1
- T/C [13]: 103 % of control
- T/C [14]: 110 % of control

Compound: O=c1nc(Cl)c2ccccc2c2ccccc12
- T/C (dose: 100.0 mg/kg/injection, schedule: Q01DX001 (ip), vehicle: saline with Tween-80): 96 % of control
- T/C [15]: 96 % of control
- T/C (dose: 200.0 mg/kg/injection, schedule: Q01DX001 (ip), vehicle: saline with Tween-80): 97 % of control
- T/C [12]: 97 % of control
- T/C (dose: 400.0 mg/kg/injection, schedule: Q01DX001 (ip), vehicle: saline with Tween-80): 87 % of control
- T/C (dose: 400.0 mg/kg/injection, schedule: Q01DX005 (ip), vehicle: saline with Tween-80): 87 % of control

Compound: CCCCCCCN(CCCCCCC)CC(O)c1c(OC)c2cc(Br)ccc2c2ccc(Br)cc12 (stereo not drawn)
- T/C (dose: 7.5 mg/kg/injection, schedule: Q01DX009 (ip), vehicle: saline with Tween-80): 93 % of control
- T/C (dose: 15.0 mg/kg/injection, schedule: Q01DX009 (ip), vehicle: saline with Tween-80): 100 % of control
- T/C (dose: 30.0 mg/kg/injection, schedule: Q01DX009 (ip), vehicle: saline with Tween-80): 93 % of control

Compound: Cc1ccc2snnc2c1
- T/C (dose: 1.56 mg/kg/injection, schedule: Q01DX009 (ip), vehicle: Klucel (hydroxypropylcellulose) (HPC)): 98 % of control
- T/C (dose: 3.12 mg/kg/injection, schedule: Q01DX009 (ip), vehicle: Klucel (hydroxypropylcellulose) (HPC)): 99 % of control
- T/C (dose: 6.25 mg/kg/injection, schedule: Q01DX009 (ip), vehicle: Klucel (hydroxypropylcellulose) (HPC)): 98 % of control and 95 % of control
- T/C [10]: 100 % of control
- T/C [11]: 95 % of control
- T/C (dose: 50.0 mg/kg/injection, schedule: Q01DX001 (ip), vehicle: Klucel (hydroxypropylcellulose) (HPC)): 99 % of control

Compound: CCN(CC)CCOc1ccc(/C(=C(\Cl)c2ccccc2)c2ccccc2)cc1
- T/C (dose: 3.13 mg/kg/injection, schedule: Q01DX009 (ip), vehicle: saline with Tween-80): 96 % of control
- T/C (dose: 6.25 mg/kg/injection, schedule: Q01DX009 (ip), vehicle: saline with Tween-80): 119 % of control
- T/C [16]: 117 % of control
- T/C [17]: 122 % of control
- T/C (dose: 50.0 mg/kg/injection, schedule: Q01DX005 (ip), vehicle: saline with Tween-80): 93 % of control
- T/C [7]: 104 % of control
- T/C [15]: 96 % of control
- T/C [12]: 93 % of control

Compound: O=c1c2sc3ccccc3c2ncn1CN1CCOCC1
- T/C [4]: 112 % of control
- T/C [5]: 121 % of control
- T/C [6]: 118 % of control

Compound: CN1C2=CCCCC2(C)c2ccccc21 (stereo not drawn)
- T/C [13]: 105 % of control
- T/C [14]: 115 % of control
- T/C (dose: 240.0 mg/kg/injection, schedule: Q01DX005 (ip), vehicle: saline): 118 % of control

Compound: COC(=O)c1cccc(OC)c1OC
- T/C [8]: 109 % of control
- T/C [9]: 100 % of control
- T/C (dose: 400.0 mg/kg/injection, schedule: Q01DX009 (ip), vehicle: saline with Tween-80): 109 % of control

Compound: CN(C=O)c1cc2c3c(c1)CCCN3CCC2
- T/C [16]: 109 % of control
- T/C (dose: 12.5 mg/kg/injection, schedule: Q04DX003 (ip), vehicle: saline with Tween-80): 100 % of control
- T/C [17]: 104 % of control
- T/C (dose: 25.0 mg/kg/injection, schedule: Q04DX003 (ip), vehicle: saline with Tween-80): 90 % of control
- T/C [7]: 109 % of control
- T/C (dose: 50.0 mg/kg/injection, schedule: Q04DX003 (ip), vehicle: saline with Tween-80): 95 % of control
